# Data from US20190054103A1, “METHOD OF TREATMENT OF TP53 WILD-TYPE TUMORS WITH 2',2'-DIFLUORO-5-AZA-2'-DEOXYCYTIDINE OR PRODRUGS THEREOF” (priority 2016, published 2019).
# Read-outs that look alike come from different tables or passages of the source.
# What was measured:
# [1] = system: TP53 WT colon cancer cell line Ls174T; test: CellTiter-Glo growth inhibition, Ls174T; assay type: cell-based; settings: Homo sapiens, 72-hour exposure, FIG. 1
# Procedure: (§1) Two examples of additional comparisons are provided below for colon cancer cell lines (TP53 WT colon cancer cell line Ls174T and TP53 WT colon cancer cell line LoVo).
# (§2) In these assays, two 96 well plates of each cell line were seeded with 5,000 cells per well in a total volume of […] per well and left incubating overnight. The following day, the cells were exposed to different concentrations of NUC013. At the end of a 72-hour exposure period, the plates were removed for CellTiter-Glo® assay. Luminescence was recorded on a Synergy 4.0.
# [2] = system: CFPAC-1; test: Growth inhibition of pancreatic cancer cell line CFPAC-1; assay type: cell-based; settings: Homo sapiens
# [3] = system: NCI-H23; test: NCI 60 Cell Line Panel growth inhibition; assay type: cell-based, human; settings: NCI-H23, Lung-NSCL, TP53 null/mutant
# Source text: (§3) The NCI-60 Cell Line Panel was assembled by the National Cancer Institute as an in vitro anticancer drug screen. The panel comprises human cancer cell lines representing nine different tissues of origin: breast, colon, central nervous system, renal, lung, melanoma, ovarian, prostate, and hematogenous. […] See, e.g., Leroy et al. “Analysis of TP53 Mutation Status in Human Cancer Cell Lines: a Reassesment” Hum Mutat 2014 35(6): 756-765.
# [4] = system: A498; test: NCI 60 Cell Line Panel growth inhibition; assay type: cell-based, human; settings: A498, Renal cancer, TP53 wild type
# Source text: as §3
# [5] = system: HCT-116; test: NCI 60 Cell Line Panel growth inhibition; assay type: cell-based, human; settings: HCT-116, Colon cancer, TP53 wild type
# Source text: as §3
# [6] = system: IGROV-1; test: NCI 60 Cell Line Panel growth inhibition; assay type: cell-based, human; settings: IGROV-1, Ovarian cancer, TP53 null/mutant
# Source text: as §3
# [7] = system: RPMI-8226; test: NCI 60 Cell Line Panel growth inhibition; assay type: cell-based, human; settings: RPMI-8226, Leukemia, TP53 null/mutant
# Source text: as §3
# [8] = system: UACC-62; test: NCI 60 Cell Line Panel growth inhibition; assay type: cell-based, human; settings: UACC-62, Melanoma, TP53 wild type
# Source text: as §3
# [9] = system: OVCAR-8; test: NCI 60 Cell Line Panel growth inhibition; assay type: cell-based, human; settings: OVCAR-8, Ovarian cancer, TP53 null/mutant
# Source text: as §3
# [10] = system: SF-268; test: NCI 60 Cell Line Panel growth inhibition; assay type: cell-based, human; settings: SF-268, CNS cancer, TP53 null/mutant
# Source text: as §3
# [11] = system: SW-620; test: NCI 60 Cell Line Panel growth inhibition; assay type: cell-based, human; settings: SW-620, Colon cancer, TP53 null/mutant
# Source text: as §3
# [12] = system: NCI/ADR-RES; test: NCI 60 Cell Line Panel growth inhibition; assay type: cell-based, human; settings: Ovarian cancer, TP53 null/mutant
# Source text: as §3
# [13] = system: DU-145; test: NCI 60 Cell Line Panel growth inhibition; assay type: cell-based, human; settings: DU-145, Prostate cancer, TP53 null/mutant
# Source text: as §3
# [14] = system: LoVo (colon cancer, TP WT); test: Xenograft model, nude mice implanted with LoVo; settings: for mean tumor volumes compared to saline control: study days 9 through 51, FIG. 3B
# [15] = system: TP53 WT colon cancer cell line LoVo; test: CellTiter-Glo growth inhibition, LoVo; assay type: cell-based; settings: Homo sapiens, 72-hour exposure, FIG. 2
# Procedure: as §1, §2
# [16] = system: HL-60 (leukemia, TP null); settings: HL-60 nude mice
# [17] = system: HeLa cells; test: Nucleotide concentrations in HeLa cell extracts by HPLC (RNR inhibition); assay type: cell-based; settings: 50 μM, 16 h incubation
# Source text: The more common approach is to synthesize a nucleoside diphosphate and then determine whether it inhibits RNR or p53R2. […] Nucleic Acids Research. […] The other approach is to expose cells in tissue culture to the drug and then attempt to determine whether deoxynucleotide synthesis is inhibited when compared to control cells. Measurement of deoxynucleotides may be done by radioimmunoassay or by HPLC. The disadvantage of a radioimmunoassay is that it can only measure a single deoxynucleotide triphosphate (dNTP) at a time and typically requires a tritiated nucleotide, but it is the preferred method for measuring dCTP [Piall E M, Aherne G W, Marks V. The quantitative determination of 2′-deoxycytidine-5′ triphosphate in cell extracts by radioimmunoassay. Anal Biochem. 1986; 154(1):276-281 incorporated herein by reference in its entirety]. On the other hand, HPLC can measure multiple nucleotides without requiring radiolabeling, but has been noted to quantitate poorly dC nucleotides, possibly as an artifact of an influx of dCTP from the medium [Bianchi V, Pontis E, Reichard P. Changes of deoxyribonucleoside triphosphate pools induced by hydroxyurea and their relation to DNA synthesis. J Biol Chem. 1986; 261(34): 16037-16042 incorporated herein by reference in its entirety]. This approach was used to determine RNR inhibition by NUC013.
# Briefly, HeLa cells ([…]) were grown in the presence or absence of drug, in this case gemcitabine or NUC013. At the end of a 16 h incubation, the medium was aspirated, cells monolayers washed twice with PBS, and used for nucleotide extraction. The nucleotides were extracted from cell monolayers by the addition of ice-cold 80% acetonitrile (ACN) for 1 h. The extracts were centrifuged to remove cellular debris and loaded on a SAX column (100 mg, Supelco) pre-conditioned with methanol, water and ACN. Once the sample was completely effused, the cartridge was washed with 3 ml 80% ACN and 3 ml water and eluted with 1M KCl. The eluent was filtered through a 0.45 μm filter membrane (Roth) and analyzed by HPLC. Peak identification of the different nucleoside mono-, di-, and triphosphates, was made from their characteristic UV absorption spectra and retention times compared with those of a mixture of standards run immediately before cell extracts. The area of individual peaks was measured using ChemStation software (Agilent).
# [18] = system: NCI 60 Cell Line Panel; test: NCI 60 Cell Line Panel, summary by TP53 status (2×2 contingency tables); assay type: cell-based, human
# Source text: as §3
# [19] = TP53 (WT) cell lines of NCI 60 cell panel
# [20] = TP53 (null/mutant) cell lines of NCI 60 cell panel
smiles,measurement,setting,value
"Nc1ncn([C@@H]2O[C@H](CO)[C@@H](O)C2(F)F)c(=O)n1 [NUC013, 4-amino-1-((2R,4R,5R)-3,3-difluoro-4-hydroxy-5-(hydroxymethyl)tetrahydrofuran-2-yl)-1,3,5-triazin-2(1H)-one]",GI50,[1],1300 nM
same,GI50,[2],53800 nM
same,Growth (%) at 10 μM,[3],30.61%
same,Growth (%) at 10 μM,[4],38.04%
same,Growth (%) at 10 μM,[5],29.84%
same,Growth (%) at 10 μM,[6],56.77%
same,Growth (%) at 10 μM,[7],39.24%
same,Growth (%) at 10 μM,[8],47.29%
same,Growth (%) at 10 μM,[9],49.95%
same,Growth (%) at 10 μM,[10],65.39%
same,Growth (%) at 10 μM,[11],51.21%
same,Growth (%) at 10 μM,[12],42.13%
same,Growth (%) at 10 μM,[13],43.48%
same,survival compared to saline controls,[14]; 5.8 mg/kg,no difference in survival
same,mean tumor weight lower compared to controls,"[14]; 5.8 mg/kg, 8 days following the end of treatment",24.3%
same,mean tumor volumes compared to saline control,[14]; 20 mg/kg,significantly lower
same,mean tumor volumes compared to saline control,[14]; 40 mg/kg,significantly lower
same,GI50,[15],3000 nM
same,animals removed from the study for death or moribund,[16]; 5.8 mg/kg,no animals removed from the study for death or moribund
same,tumor weights vs saline control,[16]; 5.8 mg/kg,not significantly different
same,"hazard ratio (HR) vs saline control (death, ulcerated tumor or tumor >4 g)",[16]; 5.8 mg/kg (equimolar to decitabine 5 mg/kg),0.46
same,"hazard ratio (HR) vs saline control (death, ulcerated tumor or tumor >4 g)",[16]; 20 mg/kg,0.26
same,tumor volume vs saline control,"[16]; 20 mg/kg, study days 18 through 28, FIG. 3A",significant decreases
same,ADP,[17],"13,845"
same,ATP,[17],"21,335"
same,CTP,[17],"1,279"
same,GTP,[17],"2,006"
same,UTP,[17],"4,070"
same,"dATP, peak area, AU",[17],10.2 AU
same,"dGDP, peak area, AU",[17],5.6 AU
same,"dTDP, peak area, AU",[17],18.65 AU
same,"dUTP, peak area, AU",[17],8.8 AU
same,inhibition at 10 µM,"[18]; Homo sapiens, 60 cell, 10 μM, read-out: Inhibition of growth of hematogenous tumor cell lines",> 50%
same,Number of cell lines with >50% growth inhibition at 10 μM,[18]; [19],11
same,Number of cell lines with ≤50% growth inhibition at 10 μM,[18]; [19],4
same,Number of cell lines with >50% growth inhibition at 10 μM,[18]; [20],13
same,Number of cell lines with ≤50% growth inhibition at 10 μM,[18]; [20],27
